Assay results as given in patent US20240408099A1, “COMBINATION […] OF KRAS G12D INHIBITORS WITH Pan ErbB FAMILY INHIBITORS” (MIRATI THERAPEUTICS, INC., priority 2021, published 2024).

Legend:
AsPC-1 cells = experiment: AsPC-1 TGI-42 pancreatic cancer xenograft, tumor volumes; type: in vivo, nude/nude mice; settings: 12.5 mg/kg QD
Method: (§1) Immunocompromised nude/nude mice are inoculated in the right hind flank with cells harboring a KRas G12D mutation. When tumor volumes reach between 200-400 mm^3 in size, the mice are divided into four to five groups of 5 mice each. The first group is administered vehicle only. […] The fourth or last groups are administered the single agent dose of the KRas G12D inhibitor using the twice daily schedule and/or the 2 sequential days followed by 5 days off schedule in combination with the single agent dose of one of the EGFR inhibitors. The treatment period varies from cell line to cell line but typically is between 15-40 days. Tumor volumes are measured using a caliper every two-three days and tumor volumes are calculated by the formula: […].
(§2) 20 to 30 nude/nude mice per study were inoculated in the right hind limb with 5×10^6 LS180 cells, AsPC-1 cells, GP2D cells, Panc 02.03 cells, SW1990 cells, or SNU-1033 cells.
Experimental Procedures. 30 nude/nude mice were inoculated with AsPC-1 cells in the right hind flank. When the tumors reached ˜300 mm^3 six treatment groups were established with five mice per group.

SW1990 cells = experiment: SW1990 TGI MDS #200407-807 pancreatic cancer xenograft, tumor volumes; type: in vivo, nude/nude mice; settings: for Average Tumor Volumes: 12.5 mg/kg QD once daily
Method: as §1, with “The treatment period varies from cell line to cell line but typically is between 15-40 days.” left out
as §2
Experimental Procedures. 30 nude/nude mice were inoculated with SW1990 cells in the right hind flank. When the tumors reached ˜300 mm^3 six treatment groups were established with five mice per group.

Panc 02.03 = Panc 02.03 TGI-43 pancreatic cancer xenograft (Table 5), tumor volumes; type: in vivo, nude/nude mice; settings: for Average Tumor Volumes: 12.5 mg/kg QD (once daily)
Method: as §1, with “The treatment period varies from cell line to cell line but typically is between 15-40 days.” left out
20 to 30 nude/nude mice per study were inoculated in the right hind limb with 5×10^6 LS180 cells, AsPC-1 cells, GP2D cells, Panc 02.03 cells, SW1990 cells, or SNU-1033 cells. […]

Panc0813 = experiment: Composite Synergy Score, Cell-Titer Glo 72 hours, dose matrix with MRTX1133; type: cell-based; settings: combined with MRTX1133
Method: (§3) Assays for determining the synergy score for the pairwise combinations for each cell line were performed in triplicate. Three 96-well plates plus an additional 4 wells of a separate 96-well control plate for determining baseline luminescence were seeded with 2000 cells/well of a particular cell line in a total volume of 90 μl of a suitable growth medium for that cell line, e.g., RPMI 1640 medium supplemented with 10% FBS and any cell line specific reagents need for growth. The plates were incubated overnight at 37° C. in a 5% CO2 atmosphere.
(§4) To each of the designated baseline wells, 30 μl of Cell-Titer Glo reagent (CTG; Promega Corporation) was added to each well and the plates were incubated for 20 min with shaking at room temperature. Baseline luminescence was quantitated using a BMG ClarioStar multimode plate reader according to the manufacturer's instructions.
(§5) A series of working stock 1000× drug dilutions in 100% DMSO was prepared that includes an 8 point single agent dilution of MRTX 1133 and a 5-point single agent dilution of the pan ErbB family inhibitor. The dilutions used for MRTX1133 and the pan ErbB family inhibitor varied for each individual compound but were in the range of 3- to 6-fold/serial dilution.
(§6) A 10× intermediate dosing plate was prepared in serum free RPMI medium that contains arrayed single agent dilutions MRTX1133 or the pan ErbB family inhibitor. In addition, a matrix of 40 dilution combinations of MRTX1133 and the pan ErbB family inhibitor was prepared as test samples.
(§7) To each corresponding well of the three 96-well plates seeded with the appropriate cell line above, 10 μl of each 10× single agent and the 40 combinations of the dose matrix was added and the plates were incubated for 72 hours at 37 C in 5% CO2 atmosphere. A 30 μl aliquot of Cell-Titer Glo reagent (CTG) was added to each test well, the plates were incubated for 20 min with shaking at room temperature, and luminescence was quantitated using a BMG ClarioStar multimode plate reader according to the manufacturer's instructions.
(§8) The output of the data from each mathematical model is the assignment of a relative synergy score. The data reported in Table 1 are the aggregate sum of the Loewe additivity, Bliss independence, Highest Single Agent and ZIP scores (“Composite Synergy Score”).
(§9) The output of the data from each mathematical model is the assignment of a relative synergy score.

SU8684 = experiment: as above; type: cell-based; settings: combined with MRTX1133
Method: as §3, §4, §5, §6, §7, §8, §9

SNUC2B = experiment: as above; type: cell-based; settings: combined with MRTX1133
Method: as §3, §4, §5, §6, §7, §8, §9

SNU1033 = experiment: as above; type: cell-based; settings: combined with MRTX1133
Method: as §3, §4, §5, §6, §7, §8, §9

LS513 = experiment: as above; type: cell-based; settings: combined with MRTX1133
Method: as §3, §4, §5, §6, §7, §8, §9

Panc0203 = experiment: as above; type: cell-based; settings: combined with MRTX1133
Method: as §3, §4, §5, §6, §7, §8, §9

CN(C)C/C=C/C(=O)Nc1cc2c(Nc3ccc(F)c(Cl)c3)ncnc2cc1OC1CCOC1 (stereo not shown) [Afatinib, (E)-N-(4-((3-chloro-4-fluorophenyl)amino)-7-((tetrahydrofuran-3-yl)oxy)quinazolin-6-yl)-4-(dimethylamino)but-2-enamide, reference compound]
tumor growth inhibition (AsPC-1 cells; single agent, Day 34): 11%
Average Tumor Volumes (AsPC-1 cells; Study Day 1): 328.208 mm^3
Average Tumor Volumes (AsPC-1 cells; Study Day 6): 463.11 mm^3
Average Tumor Volumes (AsPC-1 cells; Study Day 9): 641.776 mm^3
Average Tumor Volumes (AsPC-1 cells; Study Day 13): 720.894 mm^3
Average Tumor Volumes (AsPC-1 cells; Study Day 16): 768.716 mm^3
Average Tumor Volumes (AsPC-1 cells; Study Day 20): 964.434 mm^3
Average Tumor Volumes (AsPC-1 cells; Study Day 23): 1002.602 mm^3
Average Tumor Volumes (AsPC-1 cells; Study Day 27): 1211.064 mm^3
Average Tumor Volumes (AsPC-1 cells; Study Day 30): 1289.494 mm^3
Average Tumor Volumes (AsPC-1 cells; Study Day 34): 1252.045 mm^3
tumor growth inhibition (SW1990 cells; 12.5 mg/kg QD daily, single agent, Day 23): 20%
Average Tumor Volumes (SW1990 cells; Study Day 2): 455.54 mm^3
Average Tumor Volumes (SW1990 cells; Study Day 6): 536.86 mm^3
Average Tumor Volumes (SW1990 cells; Study Day 9): 624.98 mm^3
Average Tumor Volumes (SW1990 cells; Study Day 13): 698.56 mm^3
Average Tumor Volumes (SW1990 cells; Study Day 16): 778.74 mm^3
Average Tumor Volumes (SW1990 cells; Study Day 20): 1141.575 mm^3
Average Tumor Volumes (SW1990 cells; Study Day 23): 1293.5 mm^3
Average Tumor Volumes (SW1990 cells; Study Day −1): 363.4 mm^3
Average Tumor Volumes (Panc 02.03; Study Day 1): 331.548 mm^3
Average Tumor Volumes (Panc 02.03; Study Day 4): 361.83 mm^3
Average Tumor Volumes (Panc 02.03; Study Day 8): 398.444 mm^3
Average Tumor Volumes (Panc 02.03; Study Day 11): 470.498 mm^3
Average Tumor Volumes (Panc 02.03; Study Day 15): 660.352 mm^3
Average Tumor Volumes (Panc 02.03; Study Day 18): 784.04 mm^3
Average Tumor Volumes (Panc 02.03; Study Day 22): 904.724 mm^3
tumor growth inhibition (Panc 02.03; 12.5 mg/kg daily, single agent, Day 22): 27%
Composite Synergy Score (Panc0813): 20
Composite Synergy Score (SU8684): 42
Composite Synergy Score (SNUC2B): 25
Composite Synergy Score (SNU1033): 30
Composite Synergy Score (LS513): 69
Composite Synergy Score (Panc0203): 54
